Reference: US10052330B2, “Substituted pyrido[3,4-b]pyrazines as Syk inhibitors” (HUTCHISON MEDIPHARMA LIMITED, priority 2011, dated 2018)

Target: Syk kinase (Homo sapiens, UniProt P43405)
Assay: Syk kinase enzymatic assay (Kit-Tyr 2 Peptide)
Assay type: biochemical
Conditions: 8 concentrations, 1 μM down to 0.0003 μM; upper bound of each range is 'less than'; read-out: IC50: Enzymatic Activity (Syk kinase)

SMILES | IC50
FC1(CNc2nc(-c3ccc(N4CCOCC4)nc3)cc3nccnc23)CCCNC1 (single isomer, unassigned) [Compound 378] | 100 to 1000 nM
CN1CCN(c2ccc(-c3cc4nccnc4c(NCC4(F)CCCNC4)n3)cc2)CC1 (single isomer, unassigned) [Compound 380] | 1 to 100 nM
c1cnc2c(N3CC4CNCC4C3)nc(-c3ccc(N4CCOCC4)cc3)cc2n1 (centres unmarked) [Compound 6] | 100 to 1000 nM
NC1CCN(c2nc(-c3ccc(N4CCOCC4)cc3)cc3nccnc23)CC1 [Compound 7] | 100 to 1000 nM
c1cnc2c(N3CCC4CNCC43)nc(-c3ccc(N4CCOCC4)cc3)cc2n1 (centres unmarked) [Compound 8] | 100 to 1000 nM
COc1cc(-c2cc3nccnc3c(NCC3CCCNC3)n2)cc(OC)c1OC (centres unmarked) [Compound 11] | 100 to 1000 nM
c1cc(-c2cc3nccnc3c(NCC3CCCNC3)n2)cc(N2CCOCC2)c1 (centres unmarked) [Compound 14] | 100 to 1000 nM
Fc1ccc(-c2cc3nccnc3c(NCC3CCCNC3)n2)cc1Cl (centres unmarked) [Compound 20] | 100 to 1000 nM
c1cnc2c(NC3CCCNC3)nc(-c3ccc(N4CCOCC4)cc3)cc2n1 (centres unmarked) [Compound 27] | 100 to 1000 nM
c1cnc2c(NCC3CCCNC3)nc(-c3ccoc3)cc2n1 (centres unmarked) [Compound 31] | 100 to 1000 nM
OCCn1cc(-c2cc3nccnc3c(NC[C@H]3CCCNC3)n2)cn1 [Compound 34] | 1 to 100 nM
NS(=O)(=O)c1ccc(-c2cc3nccnc3c(NCC3CCCNC3)n2)cc1 (centres unmarked) [Compound 43] | 100 to 1000 nM
CNC(=O)COc1ccc(-c2cc3nccnc3c(NCC3CCCNC3)n2)cc1 (centres unmarked) [Compound 48] | 1 to 100 nM
CNC(=O)COc1cccc(-c2cc3nccnc3c(NCC3CCCNC3)n2)c1 (centres unmarked) [Compound 49] | 100 to 1000 nM
CS(=O)(=O)Nc1ccc(-c2cc3nccnc3c(NCC3CCCNC3)n2)cc1 (centres unmarked) [Compound 53] | 1 to 100 nM
Nc1ccc(-c2cc3nccnc3c(NCC3CCCNC3)n2)cn1 (centres unmarked) [Compound 57] | 100 to 1000 nM
CN(C)c1ccc(-c2cc3nccnc3c(NCC3CCCNC3)n2)cn1 (centres unmarked) [Compound 59] | 1 to 100 nM
c1cnc2c(NCC3CCCNC3)nc(-c3ccc(N4CCNCC4)cc3)cc2n1 (centres unmarked) [Compound 61] | 1 to 100 nM
CN(C)Cc1ccc(-c2cc3nccnc3c(NCC3CCCNC3)n2)cc1 (centres unmarked) [Compound 64] | 1 to 100 nM
O=C(c1ccc(-c2cc3nccnc3c(NCC3CCCNC3)n2)cc1)N1CCOCC1 (centres unmarked) [Compound 65] | 100 to 1000 nM
CCNC(=O)c1ccc(-c2cc3nccnc3c(NCC3CCCNC3)n2)cc1 (centres unmarked) [Compound 66] | 100 to 1000 nM
COCCn1cc(-c2cc3nccnc3c(NCC3CCCNC3)n2)cn1 (centres unmarked) [Compound 72] | 100 to 1000 nM
CN(C)CCOc1ccc(-c2cc3nccnc3c(NCC3CCCNC3)n2)cc1 (centres unmarked) [Compound 90] | 1 to 100 nM
c1cnc2c(NC[C@H]3CNCCO3)nc(-c3ccc(N4CCCC4)nc3)cc2n1 [Compound 101] | 100 to 1000 nM
c1cnc2c(N3CC4CCNC4C3)nc(-c3ccc(N4CCOCC4)cc3)cc2n1 (centres unmarked) [Compound 145, 4-(4-(5-(hexahydropyrrolo[3,4-b]pyrrol-5(1H)-yl)pyrido[4,3-b]pyrazin-7-yl)phenyl)morpholine] | 100 to 1000 nM
CCN(CC1CCCNC1)c1nc(-c2ccc(N3CCOCC3)cc2)cc2nccnc12 (centres unmarked) [Compound 154] | 100 to 1000 nM
COc1ccc(-c2cc3nccnc3c(NCCCN)n2)cc1OC [Compound 191] | 100 to 1000 nM

SMILES | IC50
CC(C)Nc1nc(-c2ccc(N3CCOCC3)cc2)cc2nccnc12 [Compound 195] | 100 to 1000 nM
COc1cc(-c2cc3nccnc3c(NCCCN)n2)ccc1OCCN1CCOCC1 [Compound 198] | 100 to 1000 nM
Cc1cc(-c2cc3nccnc3c(NCC3CNCC(F)(F)C3)n2)ccc1N1CCOCC1 (centres unmarked) [Compound 201] | 100 to 1000 nM
Fc1cc(-c2cc3nccnc3c(NCC3CNCC(F)(F)C3)n2)ccc1N1CCOCC1 (centres unmarked) [Compound 202] | 100 to 1000 nM
FC1(F)CNCC(CNc2nc(-c3ccc(N4CCOCC4)c(Cl)c3)cc3nccnc23)C1 (centres unmarked) [Compound 203] | 100 to 1000 nM
CNc1ccc(-c2cc3nccnc3c(NCC3CNCC(F)(F)C3)n2)cc1 (centres unmarked) [Compound 204] | 100 to 1000 nM
FC1(F)CNCC(CNc2nc(-c3ccc(N4CCOCC4)nc3)cc3nccnc23)C1 (centres unmarked) [Compound 206] | 100 to 1000 nM
CNc1ccc(-c2cc3nccnc3c(NCC3CNCC(F)(F)C3)n2)cc1F (centres unmarked) [Compound 207] | 100 to 1000 nM
CCn1cc(-c2cc3nccnc3c(NC[C@@H]3CNCCO3)n2)cn1 [Compound 209] | 100 to 1000 nM
Cn1cc(-c2cc3nccnc3c(NC[C@@H]3CNCCO3)n2)cn1 [Compound 210] | 100 to 1000 nM
CS(=O)(=O)c1ccc(-c2cc3nccnc3c(NC[C@@H]3CNCCO3)n2)cc1 [Compound 211] | 100 to 1000 nM
CN(C)Cc1ccc(-c2cc3nccnc3c(NC[C@@H]3CNCCO3)n2)cc1 [Compound 212] | 100 to 1000 nM
CN(C)C(=O)Cc1ccc(-c2cc3nccnc3c(NC[C@@H]3CNCCO3)n2)cc1 [Compound 224] | 100 to 1000 nM
CN(C)S(=O)(=O)c1ccc(-c2cc3nccnc3c(NCC3CNCCO3)n2)cc1 (centres unmarked) [Compound 227] | 100 to 1000 nM
O=C1COCCN1c1ccc(-c2cc3nccnc3c(NC[C@@H]3CNCCO3)n2)cc1 [Compound 242] | 100 to 1000 nM
c1cnc2c(NC[C@@H]3CNCCO3)nc(-c3ccc4c(c3)OCCO4)cc2n1 [Compound 244] | 100 to 1000 nM
Fc1ccc(-c2cc3nccnc3c(NC[C@@H]3CNCCO3)n2)cc1 [Compound 245] | 100 to 1000 nM
C[C@@H]1CN(c2ccc(-c3cc4nccnc4c(NC[C@@H]4CNCCO4)n3)cn2)C[C@H](C)O1 [Compound 246] | 100 to 1000 nM
c1cn(-c2ccc(-c3cc4nccnc4c(NC[C@@H]4CNCCO4)n3)cc2)cn1 [Compound 248] | 100 to 1000 nM
Cn1cc(-c2ccc(-c3cc4nccnc4c(NC[C@@H]4CNCCO4)n3)cc2)cn1 [Compound 249] | 100 to 1000 nM
FC1(CNc2nc(-c3ccc(N4CCOCC4)nc3)cc3nccnc23)CCCNC1 (centres unmarked) [Compound 252] | 100 to 1000 nM
CN1CC2CN(c3ccc(-c4cc5nccnc5c(NC[C@@H]5CNCCO5)n4)cn3)CC2C1 (some centres unmarked) [Compound 256] | 100 to 1000 nM
OC1CCN(c2ccc(-c3cc4nccnc4c(NC[C@@H]4CNCCO4)n3)cn2)C1 (some centres unmarked) [Compound 257] | 100 to 1000 nM
c1cnc2c(NC[C@@H]3CNCCO3)nc(-c3ccc(OCC4CCOCC4)nc3)cc2n1 [Compound 258] | 100 to 1000 nM
CN1CCC(n2cc(-c3cc4nccnc4c(NC[C@@H]4CNCCO4)n3)cn2)CC1 [Compound 262] | 100 to 1000 nM
c1cnc2c(NC[C@@H]3CNCCO3)nc(-c3ccc(OCCN4CCOCC4)nc3)cc2n1 [Compound 263] | 100 to 1000 nM
CC(C)(O)COc1ccc(-c2cc3nccnc3c(NC[C@@H]3CNCCO3)n2)cc1 [Compound 268] | 100 to 1000 nM

SMILES | IC50
c1cnc2c(NC[C@@H]3CNCCO3)nc(-c3ccc(OC4CCOCC4)nc3)cc2n1 [Compound 271] | 100 to 1000 nM
CC(Nc1nc(-c2ccc(N3CCOCC3)nc2)cc2nccnc12)C1CNCCO1 (centres unmarked) [Compound 277] | 100 to 1000 nM
O=S(=O)(c1ccc(-c2cc3nccnc3c(NC[C@@H]3CNCCO3)n2)cc1)N1CCOCC1 [Compound 283] | 100 to 1000 nM
CNS(=O)(=O)c1ccc(-c2cc3nccnc3c(NC[C@@H]3CNCCO3)n2)cc1 [Compound 284] | 100 to 1000 nM
COCCn1cc(-c2cc3nccnc3c(NCC3(F)CCCNC3)n2)cn1 (centres unmarked) [Compound 288] | 100 to 1000 nM
COc1ccc(-c2cc3nccnc3c(NCC3CNCCC3(F)F)n2)cn1 (centres unmarked) [Compound 299] | 100 to 1000 nM
O=C(C(F)F)N1CCC(F)(F)C(CNc2nc(-c3cnn(C4CCOCC4)c3)cc3nccnc23)C1 (centres unmarked) [Compound 325] | 100 to 1000 nM
CC(=O)N1CCO[C@H](CNc2nc(-c3ccc(N4CCOCC4)cc3)cc3nccnc23)C1 [Compound 326] | 100 to 1000 nM
CCC(=O)N1CCO[C@H](CNc2nc(-c3ccc(N4CCOCC4)cc3)cc3nccnc23)C1 [Compound 327] | 100 to 1000 nM
CC(C)C(=O)N1CCO[C@H](CNc2nc(-c3ccc(N4CCOCC4)cc3)cc3nccnc23)C1 [Compound 328] | 100 to 1000 nM
O=C(CO)N1CCO[C@H](CNc2nc(-c3ccc(N4CCOCC4)cc3)cc3nccnc23)C1 [Compound 337] | 100 to 1000 nM
CNC(=O)N1CCO[C@H](CNc2nc(-c3ccc(N4CCOCC4)cc3)cc3nccnc23)C1 [Compound 339] | 100 to 1000 nM
CC(C)(F)C(=O)N1CCO[C@H](CNc2nc(-c3ccc(N4CCOCC4)cc3)cc3nccnc23)C1 [Compound 341] | 100 to 1000 nM
CC(F)(F)C(=O)N1CCO[C@H](CNc2nc(-c3ccc(N4CCOCC4)cc3)cc3nccnc23)C1 [Compound 342] | 100 to 1000 nM
O=C(CC(F)(F)F)N1CCO[C@H](CNc2nc(-c3ccc(N4CCOCC4)cc3)cc3nccnc23)C1 [Compound 343] | 100 to 1000 nM
O=S(=O)(C1CC1)N1CCO[C@H](CNc2nc(-c3ccc(N4CCOCC4)cc3)cc3nccnc23)C1 [Compound 344] | 100 to 1000 nM
NC(=O)N1CCO[C@H](CNc2nc(-c3ccc(N4CCOCC4)c(F)c3)cc3nccnc23)C1 [Compound 348] | 100 to 1000 nM
NC(=O)N1CCC(CNc2nc(-c3ccc(N4CCOCC4)cc3)cc3nccnc23)CC1 [Compound 350] | 100 to 1000 nM
NC(=O)N1CCCCC1CNc1nc(-c2ccc(N3CCOCC3)cc2)cc2nccnc12 (centres unmarked) [Compound 354] | 100 to 1000 nM
NC(=O)N1CCC(F)(F)C(CNc2nc(-c3cnn(C4CCOCC4)c3)cc3nccnc23)C1 (centres unmarked) [Compound 355] | 100 to 1000 nM
NC(=O)N1CCC(F)(F)C(CNc2nc(-c3ccc(N4CCOCC4)cc3)cc3nccnc23)C1 (centres unmarked) [Compound 356] | 100 to 1000 nM
CNc1nc(-c2ccc(N3CCOCC3)cc2)cc2nccnc12 [Compound 357] | 100 to 1000 nM
CC(CO)Nc1nc(-c2ccc(N3CCOCC3)cc2)cc2nccnc12 (centres unmarked) [Compound 358] | 100 to 1000 nM
O=C1CN(c2nc(-c3ccc(N4CCOCC4)cc3)cc3nccnc23)CCN1 [Compound 360] | 100 to 1000 nM
O=C(O)c1ccccc1Nc1nc(-c2ccc(N3CCOCC3)cc2)cc2nccnc12 [Compound 361] | 100 to 1000 nM
NC(=O)[C@H]1CC[C@@H](Nc2nc(-c3ccc(N4CCOCC4)cc3)cc3nccnc23)CC1 [Compound 363] | 100 to 1000 nM
